pIC50: −log10 of the molar value.
Experiments:
Type in all cases: cell-based
[1] = system: FL-AR, AR-V7 and AR-V9 mRNA and AR protein levels in PC cells; test: AR mRNA (qRT-PCR) and AR / pYStat5 protein (immunoblot) in PC cells treated with Jak2 inhibitors; settings: for FL and AR-V AR mRNA and protein levels: CWR22Rv1 CRPC cell line, FIGS. 6A-6B
Protocol: Jak2 was inhibited for 3 days by Jak2 inhibitors AZD1480, gandotinib, pacritinib, baricitinib or fedratinib at indicated concentrations followed by RNA extraction and quantification of FL-AR, AR-V7 and AR-V9 mRNA levels by qRT-PCR.
Immunoblot analysis of AR expression in PC cells treated with increasing concentrations of Jak2 inhibitors AZD1480, gandotinib, pacritinib or baricitinib for 72 h.
(§1) We tested whether Stat5 regulation of AR mRNA and protein levels provides an opportunity to control AR levels pharmacologically by inhibition of Jak2 signaling. […] Finally, to evaluate the effect of PAC and FED on PC cell viability, CWR22Rv1 cells were treated with increasing concentrations of PAC or FED for 3 days.

[2] = system: Stat5 and Jak2 phosphorylation in PC cells; test: ENZ-induced Jak2-Stat5 phosphorylation in PC cells (IP and WB); settings: CWR22Pc, LAPC4 and CWR22Pc-ENZ-R cells; AZD1480 800 nM, 12 days
Protocol: CWR22Pc and LAPC4 PC cells were treated with ENZ or vehicle for the indicated periods of time. Levels of active Stat5 were determined by immunoprecipitation (IP) of Stat5 followed by immunoblotting (WB) for pStat5a/b and total Stat5. Whole cell lysates (WCL) were immunoblotted for pStat3, Stat3 and Actin. […] CWR22Pc and LAPC4 cells were transduced with lentiviral AR shRNA (shAR) or lenti-shCtrl for 3 days followed by treatment with ENZ or vehicle for 7 days at the indicated concentrations.
PC cells were cultured with ENZ or Jak2 inhibitor AZD1480 (800 nM) alone or in combination for 12 days. Expression levels of active Stat5 were determined by IP of Stat5 followed by WB for pStat5a/b and total Stat5. WCLs were immunoblotted for pStat3, Stat3 and Actin. […] Jak2 was suppressed by lentiviral Jak2 shRNA vs. shCtrl in PC cells for 3 days followed by ENZ or vehicle for 7 days. Active Stat5, Stat5 and Jak2 levels were evaluated by IP and WB, as depicted. […] PC cells were treated with ENZ or vehicle for 6 h at the indicated concentrations. Control cells were stimulated with prolactin (Prl) (10 nM) for 20 min as control for cytokine-induced Jak2 phosphorylation. […] Alternatively, PC cells were treated with ENZ or vehicle for 12 days or stimulated with Prl for 20 min at the indicated concentrations. Stat5 and Jak2 were IP:ed and WB:ed for pStat5, pJak2, tot Stat5, and total Jak2.
To investigate whether AR is required for ENZ induction of Stat5 signaling, we inhibited AR expression in CWR22Pc and LAPC4 cells by genetic knockdown using lentiviral expression of AR shRNA (FIG. 9C).
To further assess the involvement of Jak2 in ENZ-induced Stat5 activation, Jak2 was genetically knocked down by lentiviral expression of Jak2 shRNA in CWR22Pc and LAPC4 cells for 3 days followed by ENZ treatment for 7 days.

CWR22Rv1 PC cells = test: Death / viability of CWR22Rv1 PC cells treated with Jak2 inhibitors
Protocol: as §1

Compound	FL and AR-V AR mRNA and protein levels [1]	ENZ-induced Stat5 phosphorylation [2]	pIC50 (CWR22Rv1 PC cells; 72 h, CWR22Rv1, at 3 days, read-out: IC50, induction of death of CWR22Rv1 PC cells)	AR protein levels in PC cells ([1]; 72 h, immunoblot, FIG. 6B)	AR mRNA levels in PC cells ([1]; 3 days, qRT-PCR, FIG. 6A)	Stat5 phosphorylation ([1]; prostate cancer cells, FIG. 6B)	induction of death of PC cells (CWR22Rv1 PC cells; FIG. 7D, 7E)
Cc1cc(Nc2nc(N[C@@H](C)c3ncc(F)cn3)ncc2Cl)n[nH]1 [AZD1480, 5-chloro-2-N-[(1S)-1-(5-fluoropyrimidin-2-yl)ethyl]-4-N-(5-methyl-1H-pyrazol-3-yl)pyrimidine-2,4-diamine]	dose-dependent reduction	blocked ENZ-induced Stat5 phosphorylation	–	–	–	–	–
CCS(=O)(=O)N1CC(CC#N)(n2cc(-c3ncnc4[nH]ccc34)cn2)C1 [baricitinib, 2-[1-Ethylsulfonyl-3-[4-(7H-pyrrolo[2,3-d]pyrimidin-4-yl)pyrazol-1-yl]azetidin-3-yl]acetonitrile]	dose-dependent reduction	–	–	–	–	–	–
Cc1cc(Nc2cc(CN3CCOCC3)c3nc(C)c(Cc4ccc(Cl)cc4F)n3n2)n[nH]1 [gandotinib, 3-(4-Chloro-2-fluorobenzyl)-2-methyl-N-(5-methyl-1H-pyrazol-3-yl)-8-(morpholinomethyl)imidazo[1,2-b]pyridazin-6-amine]	dose-dependent reduction	–	6.52	–	–	–	–
N#CCNC(=O)c1ccc(-c2ccnc(Nc3ccc(N4CCOCC4)cc3)n2)cc1 [momelotinib]	dose-dependent reduction	–	–	did not result in the suppression of AR protein levels	does not suppress AR expression in PC cells	does not inhibit Stat5 phosphorylation	does not provide the same effect of beneficial induction of cell death

Source: patent US20220323444A1, “Methods of Treating Advanced Prostate Cancer” (The Medical College of Wisconsin, Inc., priority 2019, published 2022)
